{"source": "paper PMC12526212", "about": "“Novel Isolongifolenone-Based Caprolactam Derivatives as Potential Anticancer Agents via the p53/mTOR/Autophagy Pathway” (Molecules, 2025)", "key": {"[1]": {"tested_on": "MCF-7 cells", "test": "MMP assay (JC-1, flow cytometry)", "type": "cell-based, human", "settings": "24 h", "procedure": "If intracellular ROS levels rise above a certain threshold, the mitochondria may become damaged. […] In these experiments, MCF-7 cells were incubated with E10 for 24 h, and mitochondrial membrane potential (MMP) was then evaluated by flow cytometry using JC-1 as an indicator. […] These changes in the red/green fluorescence ratio are indicative of mitochondrial depolarization, a decrease in mitochondrial function, and potentially damage to mitochondria.\nMCF-7 cells were treated with different concentrations of compound E10 for 24 h. After that, the cells were collected and stained with JC-1 (Yeasen, Shanghai, China, 40706ES60) for 15 min. The cell samples were detected by flow cytometry (BD) and the data were analyzed by flowjo 10.6 software."}, "[2]": {"tested_on": "MCF-7 cells", "test": "Monodansylcadaverine (MDC) staining assay for autophagy", "type": "cell-based, human", "settings": "24 h, compared with control; 3-MA as co-treatment with E10", "procedure": "(§1) To investigate whether E10 induced autophagy in MCF-7 cells, we performed Monodansylcadaverine (MDC) staining, transmission electron microscopy (TEM), and Western blot analysis to evaluate autophagy-related markers. MDC is a fluorescent probe commonly used to detect the formation of autophagic vacuoles, as it specifically labels autophagosomes.\nMDC is a staining indicator for the formation of autophagosome. MCF-7 cells were seeded at a density of 2 × 10^5 cells per well in 6-well plates. MCF-7 cells were inoculated into a 6-well plate, and the cells were treated with E10 for 24 h. The treated cells were washed twice with buffer and then stained with MDC (Beijing Solarbio Science & Technology Co., Ltd., Beijing, China) for 40 min. The cells were then detected under a fluorescence microscope (Carl Zeiss, Jena, Germany)."}, "[3]": {"tested_on": "LO2", "test": "CCK-8 cytotoxicity on normal cell line LO2", "type": "cell-based", "settings": "Homo sapiens, L02; normal liver cells, CCK-8, 48 h, mean ± SD of three experiments", "procedure": "(§2) Three cancer cell lines (human breast adenocarcinoma cells MCF-7, human lung adenocarcinoma epithelial cells A549, and human hepatocellular carcinoma cells HepG2) were obtained from the Cell Bank of the Chinese Academy of Sciences (Shanghai, China). LO2 human normal liver cells were also purchased from STEM RECELL (Beijing, China, STM-CL-5770). The anti-proliferation activity of compounds was tested on three cancer cell lines. The cytotoxicity of compounds as tested on normal cell line (human normal liver cells LO2). Cells were seeded at a density of 5000 cells per well in 96-well plates. Natural product piperlongumine was used as the positive control. All experiments were performed in triplicate. Three cancer cell lines were cultured in High DMEM medium or RIPM 1640 containing 10% FBS (Sijiqing, Hangzhou, China) and 1% antibiotics at 37 °C in a 5% CO2 incubator. The experimental cells were seeded in a 96-well plate at 5000 cells per well and incubated for 24 h. The old medium was replaced with experimental medium, and the cells were cultured for 48 h. Afterward, 10 µL of CCK-8 solution was added to each well, and the cells were incubated for 3 h. The absorbance at 450 nm was measured using a microplate reader."}, "[4]": {"tested_on": "MCF-7 cells", "test": "Intracellular ROS assay (DCFH-DA, flow cytometry)", "type": "cell-based, human", "settings": "24 h, compared to control", "procedure": "Oxidative stress is known to increase intracellular reactive oxygen species (ROS) levels and to contribute to cell apoptosis and autophagy. To investigate whether E10 induced intracellular ROS accumulation, ROS levels in MCF-7 cells were determined by flow cytometric assay using DCFH-DA as a redox-sensitive probe.\nFor the detection of intracellular ROS levels, MCF-7 cells were seeded at a density of 5 × 10^5 cells per well in a 12-well plate and treated with different concentrations of compound E10 for 24 h. The cells were collected and stained with 5 μM of DCFH-DA dye (Yeasen, Shanghai, China, 50101ES01) in the incubator for 30 min. Flow cytometry (BD) detected the stained cell samples, and the data were analyzed using FlowJo software."}, "[5]": {"tested_on": "MCF-7 xenograft", "test": "Zebrafish MCF-7 xenograft model", "type": "in vivo", "source_text": "Zebrafish have become a well-established model for both anticancer drug discovery and toxicity evaluation. This animal model affords several unique advantages, including rapid development, optical transparency, and genetic conservation with humans. These features make zebrafish particularly suitable for high-throughput in vivo screening and mechanistic studies in oncology research. Tumor burden in zebrafish xenografts is commonly quantified from Dil/DiI-labeled fluorescence area or integrated intensity, which correlates with cell number and treatment response. To assess the in vivo antitumor efficacy of compound E10, we established a zebrafish xenograft model. Briefly, CM-Dil-labeled MCF-7 cells (showing red fluorescence) were microinjected into the yolk sacs of zebrafish embryos. The xenografted zebrafish were then randomly assigned into five groups: three E10-treatment groups (0.5 µg/mL, 1.0 µg/mL, and 2.0 µg/mL), a Doxorubicin (Dox) positive control group, and a PBS negative control group.\nAll experimental procedures were approved by ACUC of Shandong Academy of Sciences (Animal Care and Use Committee). Wild-type AB of zebrafish were obtained from Biology Institute, Qilu University of Technology. The embryos were incubated in special embryonic medium (0.17 mM KCl, 5.0 mM NaCl, 0.4 mM CaCl2, and 0.16 mM MgSO4) at 28 °C. 48 h-old zebrafish embryos were microinjected with CM-Dil labelled MCF-7 cells under stereomicroscopy. After injection, zebrafish embryos with the same injection spot were randomly planted on a six-well plate. These xenograft zebrafish were sorted into four groups of about 15–20 zebrafish each and treated with 0.5, 1.0, 2.0 μg/mL of compound E10 for 48 h, 1.0 μM doxorubicin as a positive control group. After treatment, the fluorescence intensity of living cells was examined with laser confocal microscopy (Olympus, Tokyo, Japan)."}, "[6]": {"tested_on": "MCF-7", "test": "CCK-8 antiproliferative assay, MCF-7", "type": "cell-based", "settings": "Homo sapiens, MCF7; CCK-8, 48 h, mean ± SD of three experiments; read-out: IC50 MCF-7", "procedure": "After synthesis and characterization, the isolongifolenone bicyclocaprolactam derivatives were evaluated for their in vitro antiproliferative activity against three cancer cell lines (MCF-7, HepG2, A549) using a CCK-8 assay. […] In general, the antiproliferative activities of most of these compounds were similar, irrespective of whether electron-withdrawing or electron-donating substituents were introduced in the phenoxy ring.\nas §2"}, "[7]": {"tested_on": "MCF-7 cells", "test": "Autophagy assay using transmission electron microscopy", "type": "cell-based, human", "settings": "24 h", "procedure": "as §1\nMCF-7 cells were treated with E10 for 24 h. Cells were washed twice with pre-cold PBS, fixed in 2% glutaraldehyde at 4 °C for 2 h. Then, the sample was post-fixed in 2% osmium tetroxide for 1 h at 4 °C in the dark. Samples were dehydrated through a graded ethanol series, infiltrated and embedded in Spurr’s resin, and polymerized at 60 °C overnight. Ultrathin sections (~70–90 nm) were cut on an ultramicrotome, mounted on copper grids, counterstained with uranyl acetate and lead citrate, and examined by transmission electron microscopy (JEM-100CX; JEOL, Tokyo, Japan) at the indicated magnifications."}}, "data": [{"smiles": "CC1(C)C2=CC(=O)N(C(=O)C=Cc3cccc(C(F)(F)F)c3)CC(C)(C)C23CCC1C3", "note": "(centres unmarked) [E10, 5,5,9,9-Tetramethyl-3-(3-(3-(trifluoromethyl)phenyl)acryloyl)-4,5,6,7,8,9-hexahydro-5a,8-methanobenzo[d]azepin-2(3H)-one]", "values": [{"measurement": "mitochondrial membrane potential", "setting": "[1]", "result": "concentration-dependent reduction in MMP"}, {"measurement": "MDC staining, autophagosome formation", "setting": "[2]", "result": "significantly increased the number of punctate green fluorescence signals"}, {"measurement": "IC50", "setting": "[3]", "result": "14.41 ± 0.04", "unit": "µM"}, {"measurement": "intracellular ROS levels", "setting": "[4]", "result": "markedly increased"}, {"measurement": "inhibition rate (decrease in fluorescence)", "setting": "[5]; 2.0 µg/mL E10, 48 h", "result": 50.0, "unit": "%"}, {"measurement": "fluorescence intensity of xenograft", "setting": "[5]; 48 h, compared with PBS control, Dox 1.0 μM", "result": "notable reduction in fluorescence intensity"}, {"measurement": "IC50", "setting": "[6]", "result": "0.32 ± 0.05", "unit": "µM"}, {"measurement": "TEM, autophagic vesicles", "setting": "[7]", "result": "presence of membrane-bound autophagic vesicles"}]}]}
